Test results published in patent publication US11013716B2, “Method for providing an increased expression of telomerase, brain-derived neurotrophic factor, stromal cell-derived factor-1, CXC chemokine receptor 4, and/or immune regulatory factor of stem cell” (HAWKING BIOLOGICAL TECHNOLOGY CO., LTD, priority 2013, dated 2021).

Tests used:
[1] = test system: telomerase; experiment: Telomerase expression level of ADSCs (Telomerase PCR ELISA kit); assay type: cell-based, human; conditions: 100 μM or 250 μM, 24 hours; FIG. 4
Procedure: (§1) Human ADSCs were isolated from human adipose tissue by the following steps. Human adipose tissue from clinical research was washed with equal volumes of phosphate-buffered saline (PBS) and minced with fine scissors. Then, the tissue was digested with 0.075% collagenase type I (Sigma-Aldrich Co., St. Louis, Mo., USA) at 37° C. for 30 to 60 minutes, and a Dulbecco's modified Eagle's medium (DMEM)/F-12 (Invitrogen, Carlsbad, Calif., USA) containing 10% fetal bovine serum (FBS, Invitrogen) was added to terminate the digestion. The digested adipose tissue cells were filtered through a 100 μm nylon mesh to remove the cellular debris. The cell suspension was centrifuged for 10 minutes to obtain a pellet and cultured at 37° C., 5% CO2 in a culture media (DMEM/F-12 containing 10% FBS, 100 U/mL penicillin, and 100 μg/mL streptomycin). Following the incubation, the plates were washed with PBS to remove the residual non-adherent red blood cells. […]
The ADSCs were cultured in a 10 cm dish, and treated with valproic acid (VPA) (1 μM or 10 μM) or BP (comprising Z-BP 95%+E-BP 5%; purchased from ECHO Chemical) (100 μM or 250 μM) at different doses for 24 hours. Then, the telomerase expression level of the ADSCs was determined by a Telomerase PCR ELISA kit (Cat. No. 11854666910, Roche). […]

[2] = test system: SOD1-G93A transgenic mice; experiment: Survival of SOD1-G93A transgenic mice (amyotrophic lateral sclerosis model); assay type: in vivo; conditions: oral
Source text: It has been known that about 20% of amyotrophic lateral sclerosis patients were associated with mutations in the gene that encodes Cu/Zn superoxide dismutase enzyme (SOD1), and G93A was the major mutation site.
(§2) This example used the above SOD1-G93A transgenic mice as the object of study to perform in vivo analysis.

[3] = test system: interleukin 8 (IL-8); experiment: Gene expression level in ADSCs by RT-PCR: IL-8; assay type: cell-based, human; conditions: ADSCs, 10, 20 or 50 μg/ml, 12 hours; FIG. 5
Procedure: as §1
(§3) ADSCs (2×10^5 cells/well) were cultured in a 6 well dish in a 37° C. incubator overnight. […] Thereafter, the gene expression levels of brain-derived neurotrophic factor (BDNF), stromal cell-derived factor-1 (SDF1), C-X-C chemokine receptor type 4 (CXCR4), interleukin 6 (IL-6), and interleukin 8 (IL-8) of the ADSCs were determined by RT-PCR. […]

[4] = test system: interleukin 6 (IL-6); experiment: Gene expression level in ADSCs by RT-PCR: IL-6; assay type: cell-based, human; conditions: ADSCs, 10, 20 or 50 μg/ml, 12 hours; FIG. 5
Procedure: as §1, §3

[5] = test system: C-X-C chemokine receptor type 4 (CXCR4); experiment: Gene expression level in ADSCs by RT-PCR: CXCR4; assay type: cell-based, human; conditions: ADSCs, 10, 20 or 50 μg/ml (especially 20 μg/ml), 12 hours; FIG. 5
Procedure: as §1, §3

[6] = test system: stromal cell-derived factor-1 (SDF1); experiment: Gene expression level in ADSCs by RT-PCR: SDF1; assay type: cell-based, human; conditions: ADSCs, 10, 20 or 50 μg/ml (especially 20 μg/ml), 12 hours; FIG. 5
Procedure: as §1, §3

[7] = test system: SOD1-G93A transgenic mice; experiment: BBB scale of the hind limbs of SOD1-G93A transgenic mice; assay type: in vivo; conditions: 500 mg/kg once daily oral; FIG. 3
Procedure: as §2
After the mice were treated for 30 days, the hind limbs of the mice were examined by BBB scale (Basso, Beattie, and Bresnahan (BBB) Locomotor Rating Scale). […] BBB scale is used to record the efficiency of the treatments.

[8] = test system: brain-derived neurotrophic factor (BDNF); experiment: Gene expression level in ADSCs by RT-PCR: BDNF; assay type: cell-based, human; conditions: ADSCs, 10, 20 or 50 μg/ml (especially 20 μg/ml), 12 hours; FIG. 5
Procedure: as §1, §3

[9] = Phase I metabolism assay of n-butylidenephthalide, rat hepatic microsomes, LC-MS/MS; assay type: in vitro ADME; conditions: Rat hepatic microsomes 0.5 mg/mL, BP 2 mM, NADPH, 37° C., 60 minutes
Source text: (§4) It has been known that the medicine metabolic pathway within an organism's liver can be primarily divided into phase I and phase II metabolism. Phase I metabolism occurs mainly by the redox reaction or hydrolysis reaction of medicine, while phase II metabolism occurs mainly by […]. This example simulated the phase I and II metabolism of butylidenephthalide that occur within an organism's liver by respectively mixing butylidenephthalide with hepatic microsomes or cryopreserved hepatocytes in vitro. The products in the reaction solution were analyzed by liquid chromatograph-tandem mass spectrometer (LC-MS/MS) to identify the metabolites and the metabolic profile. The experimental steps were as follows:
(§5) n-Butylidenephthalide (comprising Z-BP 95%+E-BP 5%; purchased from ECHO Chemical) (2 mM) was mixed respectively with K3PO4 buffer solution (100 mM, pH7.4) containing human, rats or dogs hepatic micrsomes (0.5 mg/mL). The mixture was maintained at 37° C. for 10 minutes, and then pre-warmed cofactors (NADPH (2 mM) and MgCl2 (3 mM)) were added thereto and the mixture was incubated at 37° C. for 60 minutes. Thereafter, 3-fold volume of acetonitrile containing 0.1% formic acid was added to the mixture to terminate the reaction. The mixture was centrifuged at 13000 rpm for 5 minutes. The supernatant was then collected and analyzed by LC-MS/MS to identify the metabolites.
(§6) The samples obtained from (1) and (2) were separately dissolved in acetonitrile/0.1% formic acid, centrifuged at 45000 g, 4° C. for 10 minutes. Then, an aliquot (20 μl) of each sample was injected into an autosampler vial (Agilent Technologies, USA) of a LC-MS/MS system to perform LC-MS/MS analysis. The LC-MS/MS system comprises an ABSCIEX 5500 Q TRAP™ system with 1200SL HPLC system (Agilent Technologies, USA), a HPLC column (Symmetry® C18, 3.5 μM, 4.6×75 mm), and a autosampler (Agilent Technologies, USA). A two-solvent system (solvent A: 0.1% formic acid; solvent B: methanol containing 0.1% formic acid) was used to perform HPLC at a flow rate of 0.8 mL/min. The HPLC gradient system was set as follows: 0 to 2 minutes held at 10% solvent B; 2 to 7 minutes with a gradient from 10% to 95% solvent B; 7 to 12 minutes held at 95% solvent B; 12 to 14 minutes with a gradient from 95% to 10% solvent B; 14 to 20 minutes held at 10% solvent B; and the retention time of HPLC analysis is 20 minutes. The mass spectrometry analysis was performed in positive ion electrospray ionization (+ESI) mode at 5.5 kV, 550° C., and N2 (nitrogen) was used as an auxiliary gas. The most intense peaks in the LC-MS/MS spectrum and the mass-shifted peaks in the LC-MS/MS spectrum of each sample as compared to n-butylidenephthalide spectrum were analyzed by LightSight™ Software to determine the metabolites in the samples and identifying the biotransformation pathway and metabolic profile of n-butylidenephthalide in an organism. The results are shown in Table 1, Table 2, FIG. 1A, FIG. 1B and FIG. 1C.

[10] = Phase I metabolism assay of n-butylidenephthalide, human hepatic microsomes, LC-MS/MS; assay type: in vitro ADME; conditions: Human hepatic microsomes 0.5 mg/mL, BP 2 mM, NADPH, 37° C., 60 minutes
Source text: as §4, §5, §6

[11] = Phase I metabolism assay of n-butylidenephthalide, dog hepatic microsomes, LC-MS/MS; assay type: in vitro ADME; conditions: Dog hepatic microsomes 0.5 mg/mL, BP 2 mM, NADPH, 37° C., 60 minutes
Source text: as §4, §5, §6

[12] = test system: human hepatocytes; experiment: Phase II metabolism assay of n-butylidenephthalide, human hepatocytes, LC-MS/MS; assay type: in vitro ADME; conditions: Human cryopreserved hepatocytes, BP 50 μM, 37° C., 6 hours
Source text: as §4
(§7) William's E medium containing 5×10^5 thawed human, rat or dog hepatocytes were respectively added into a 12-well culture dish, and the cells were cultured for 6 hours. Then, 0.5 mL of n-butylidenephthalide (comprising Z-BP 95%+E-BP 5%; purchased from ECHO Chemical) (50 μM) was added into the culture dish. After the cells were incubated at 37° C., 95% relative humidity and 5% CO2 for 6 hours, 2 mL of acetonitrile (100%) was added to terminate the reaction. […] The supernatant was then collected, dried, and analyzed by LC-MS/MS to identify the metabolites of n-butylidenephthalide. […]

[13] = test system: rat hepatocytes; experiment: Phase II metabolism assay of n-butylidenephthalide, rat hepatocytes, LC-MS/MS; assay type: in vitro ADME; conditions: Rat cryopreserved hepatocytes, BP 50 μM, 37° C., 6 hours
Source text: as §4, §7

[14] = test system: dog hepatocytes; experiment: Phase II metabolism assay of n-butylidenephthalide, dog hepatocytes, LC-MS/MS; assay type: in vitro ADME; conditions: Dog cryopreserved hepatocytes, BP 50 μM, 37° C., 6 hours
Source text: as §4, §7

[15] = test system: telomerase; conditions: previous research; cited from earlier work
[16] = 500 mg/kg-body weight once daily

Row | SMILES | Biotransformation pathway (Phase I metabolites of n-butylidenephthalide) [9] | Biotransformation pathway (Phase I metabolites of n-butylidenephthalide) [10] | Biotransformation pathway (Phase I metabolites of n-butylidenephthalide) [11] | also measured
1 | CCCC=C1OC(=O)c2ccccc21 [BP, n-butylidenephthalide] | – | – | – | Telomerase activity (expression level of telomerase) of ADSCs [1]: higher telomerase activity; Longevity prolonged as compared to the control group ([2]; 250 mg/kg-body weight twice daily): about 91.3±16 days; Longevity prolonged as compared to the control group [2, 16]: about 22.7±2.8 days; Gene expression level of IL-8 [3]: increased; Gene expression level of IL-6 [4]: increased; Gene expression level of CXCR4 [5]: increased; Gene expression level of SDF1 [6]: increased; Time after which the BBB scale of the hind limbs decreased rapidly [7]: > 135 days; Gene expression level of BDNF [8]: increased
2 | C/C=C/C=C1\OC(=O)c2ccccc21 [Compound (2)] | Dehydrogenation | Dehydrogenation | Dehydrogenation | –
3 | CC(O)C/C=C1\OC(=O)c2ccccc21 (stereo not drawn) [Compound (4)] | Oxidation | Oxidation | Oxidation | –
4 | CCCCC(=O)c1ccccc1C(=O)O [Compound (5)] | Hydrogenation (forming | Hydrogenation (forming | Hydrogenation (forming | –
5 | CCCCC1(O)OC(=O)c2ccccc21 (stereo not drawn) [Compound (7)] | Hydrogenation (forming | Hydrogenation (forming | Hydrogenation (forming | –
6 | C=C1OC(=O)c2ccccc21 [Compound (8)] | Tri-Demethylation | Tri-Demethylation | Tri-Demethylation | –
7 | C/C=C/C=C1\OC(=O)c2c1cccc2S(=O)(=O)O [Compound (12)] | – | – | – | Biotransformation pathway (Phase II metabolites of n-butylidenephthalide) [12]: Dehydrogenation +; Biotransformation pathway (Phase II metabolites of n-butylidenephthalide) [13]: Dehydrogenation +
8 | C/C=C/C=C1\OC(=O)c2c(O[C@@H]3OC(CO)[C@@H](O)[C@H](O)C3O)cccc21 (stereo partly drawn) [Compound (14)] | – | – | – | Biotransformation pathway (Phase II metabolites of n-butylidenephthalide) [14]: Dehydrogenation +
9 | CCCC(CCC)C(=O)O [VPA, valproic acid] | – | – | – | Telomerase activity of ADSCs [15]: could increase the telomerase activity
10 | CCCC=C1OC(=O)C2=C1CCC=C2 [ligustilide, 3-butylidene-4,5-dihydrophthalide] | – | – | – | Longevity prolonged as compared to the control group [2, 16]: about 74.8±1.2 days; Time after which the BBB scale of the hind limbs decreased rapidly [7]: > 170 days
